Reference: US6737383B1, “Herbicidal oxadiazolidines” (priority 1999, dated 2004)

Columns and labels:
pigweed = test: Test B pre/postemergence pigweed; format: in vivo, Amaranthus retroflexus
Summary of the method: (§1)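 Response is a visual 0-to-10 score relative to untreated plants, where 0 means no effect and 10 means complete control, taken twelve to sixteen days after application. Treatments went onto soil at planting and onto foliage of 1- to 4-leaf plants, using a surfactant-containing non-phytotoxic solvent.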

rape = test: Test B pre/postemergence rape; format: in vivo, Brassica napus
Summary of the method: as §1

wheat = test: Test B pre/postemergence wheat; format: in vivo, Triticum aestivum
Summary of the method: as §1

cocklebur = test: Test B pre/postemergence cocklebur; format: in vivo, Xanthium strumarium
Summary of the method: as §1

surinam grass = test: Test B pre/postemergence surinam grass; format: in vivo, Brachiaria decumbens
Summary of the method: as §1

wild oat = test: Test B pre/postemergence wild oat; format: in vivo, Avena fatua
Summary of the method: as §1

giant foxtail = test: Test B pre/postemergence giant foxtail; format: in vivo, Setaria faberii
Summary of the method: as §1

blackgrass = test: Test B pre/postemergence blackgrass; format: in vivo, Alopecurus myosuroides
Summary of the method: as §1

soybean = test: Test B pre/postemergence soybean; format: in vivo, Glycine max
Summary of the method: as §1

morningglory = test: Test B pre/postemergence morningglory; format: in vivo, Ipomoea hederacea
Summary of the method: as §1

velvetleaf = test: Test B pre/postemergence velvetleaf; format: in vivo, Abutilon theophrasti
Summary of the method: as §1

sugar beet = test: Test B pre/postemergence sugar beet; format: in vivo, Beta vulgaris
Summary of the method: as §1

corn = test: Test B pre/postemergence corn; format: in vivo, Zea mays
Summary of the method: as §1

bedstraw = test: Test B pre/postemergence bedstraw; format: in vivo, Galium aparine
Summary of the method: as §1

[1] = Postemergence, Rate 125 g/ha, scale of 0 to 10 where 0 is no effect and 10 is complete control
[2] = Preemergence, Rate 250 g/ha, scale 0 to 10, 0 is no effect, 10 is complete control
[3] = Preemergence, Rate 500 g/ha, scale 0 to 10 (0 no effect, 10 complete control)
[4] = Rate 62 g/ha, Postemergence, scale of 0 to 10 where 0 is no effect and 10 is complete control
[5] = Rate 250 g/ha, Postemergence, scale 0 to 10, 0 is no effect, 10 is complete control
[6] = Rate 500 g/ha, Postemergence, scale 0 to 10
[7] = Preemergence, Rate 62 g/ha, scale of 0 to 10 where 0 is no effect and 10 is complete control
[8] = Preemergence, Rate 125 g/ha, 0 is no effect, 10 is complete control

`CC(C)N(C(=O)n1oc(=O)n(CC(F)(F)F)c1=O)c1ccc(F)cc1` [Compound 163] was tested, and the “Redroot pigweed plant response rating” value (pigweed; [1]) was 2, the “Redroot pigweed plant response rating” value (pigweed; [2]) was 6 and the “Redroot pigweed plant response rating” value (pigweed; [3]) was 9. The “Redroot pigweed plant response rating” value (pigweed; [4]) was 0, the “Plant response rating, Redroot pigweed” value (pigweed; [5]) was 3 and the “Redroot pigweed plant response rating” value (pigweed; [6]) was 3. For the same compound, the “Rape plant response rating” value (rape; [1]) was 0, the “Rape plant response rating” value (rape; [7]) was 0 and the “Rape plant response rating (0 to 10 scale)” value (rape; [8]) was 0. The “Rape plant response rating” value (rape; [2]) was 7, the “Rape plant response rating” value (rape; [3]) was 8 and the “Rape plant response rating” value (rape; [4]) was 0. For the same compound, the “Plant response rating, Rape” value (rape; [5]) was 2, the “Rape plant response rating” value (rape; [6]) was 4 and the “Wheat plant response rating” value (wheat; [7]) was 0. For the same compound, the “Wheat plant response rating (0 to 10 scale)” value (wheat; [8]) was 2, the “Wheat plant response rating” value (wheat; [2]) was 2 and the “Wheat plant response rating” value (wheat; [3]) was 4. The “Plant response rating, Wheat” value (wheat; [5]) was 2, the “Wheat plant response rating” value (wheat; [6]) was 5 and the “Cocklebur plant response rating” value (cocklebur; [1]) was 0. The “Cocklebur plant response rating” value (cocklebur; [7]) was 0, the “Cocklebur plant response rating (0 to 10 scale)” value (cocklebur; [8]) was 0 and the “Cocklebur plant response rating” value (cocklebur; [3]) was 0. The “Cocklebur plant response rating” value (cocklebur; [4]) was 0, the “Plant response rating, Cocklebur” value (cocklebur; [5]) was 3 and the “Cocklebur plant response rating” value (cocklebur; [6]) was 3. For the same compound, the “B. signalgrass plant response rating” value (surinam grass; [1]) was 2, the “B. signalgrass plant response rating” value (surinam grass; [7]) was 0 and the “B. signalgrass plant response rating (0 to 10 scale)” value (surinam grass; [8]) was 2. For the same compound, the “B. signalgrass plant response rating” value (surinam grass; [2]) was 2, the “B. signalgrass plant response rating” value (surinam grass; [3]) was 2 and the “B. signalgrass plant response rating” value (surinam grass; [4]) was 0. For the same compound, the “Plant response rating, B. signalgrass” value (surinam grass; [5]) was 5, the “B. signalgrass plant response rating” value (surinam grass; Rate 500 g/ha, Postemergence, scale 0 to 10, 0 no effect, 10 complete control) was 6 and the “Wild oats plant response rating” value (wild oat; [7]) was 3. For the same compound, the “Wild oats plant response rating (0 to 10 scale)” value (wild oat; [8]) was 3, the “Wild oats plant response rating” value (wild oat; [2]) was 7 and the “Wild oats plant response rating” value (wild oat; [3]) was 10. The “Plant response rating, Wild oats” value (wild oat; [5]) was 3, the “Wild oats plant response rating” value (wild oat; [6]) was 3 and the “Giant foxtail plant response rating” value (giant foxtail; [1]) was 7. The “Giant foxtail plant response rating” value (giant foxtail; [7]) was 8, the “Giant foxtail plant response rating (0 to 10 scale)” value (giant foxtail; [8]) was 8 and the “Giant foxtail plant response rating” value (giant foxtail; [2]) was 8. The “Giant foxtail plant response rating” value (giant foxtail; [3]) was 10, the “Giant foxtail plant response rating” value (giant foxtail; [4]) was 6 and the “Plant response rating, Giant foxtail” value (giant foxtail; [5]) was 8. The “Giant foxtail plant response rating” value (giant foxtail; [6]) was 8, the “Blackgrass plant response rating” value (blackgrass; [1]) was 4 and the “Blackgrass plant response rating” value (blackgrass; [7]) was 7. The “Blackgrass plant response rating (0 to 10 scale)” value (blackgrass; [8]) was 7, the “Blackgrass plant response rating” value (blackgrass; [2]) was 10 and the “Blackgrass plant response rating” value (blackgrass; [3]) was 10. For the same compound, the “Blackgrass plant response rating” value (blackgrass; [4]) was 2, the “Plant response rating, Blackgrass” value (blackgrass; [5]) was 6 and the “Blackgrass plant response rating” value (blackgrass; [6]) was 8. For the same compound, the “Soybean plant response rating” value (soybean; [1]) was 2, the “Soybean plant response rating” value (soybean; [7]) was 0 and the “Soybean plant response rating (0 to 10 scale)” value (soybean; [8]) was 0. For the same compound, the “Soybean plant response rating” value (soybean; [2]) was 0, the “Soybean plant response rating” value (soybean; [3]) was 0 and the “Soybean plant response rating” value (soybean; [4]) was 2. The “Plant response rating, Soybean” value (soybean; [5]) was 3, the “Soybean plant response rating” value (soybean; [6]) was 3 and the “Morningglory plant response rating” value (morningglory; [1]) was 2. The “Morningglory plant response rating” value (morningglory; [7]) was 0, the “Morningglory plant response rating (0 to 10 scale)” value (morningglory; [8]) was 0 and the “Morningglory plant response rating” value (morningglory; [2]) was 0. For the same compound, the “Morningglory plant response rating” value (morningglory; [3]) was 0, the “Morningglory plant response rating” value (morningglory; [4]) was 2 and the “Plant response rating, Morningglory” value (morningglory; [5]) was 5. The “Morningglory plant response rating” value (morningglory; [6]) was 8, the “Velvetleaf plant response rating” value (velvetleaf; [7]) was 0 and the “Velvetleaf plant response rating (0 to 10 scale)” value (velvetleaf; [8]) was 2. The “Velvetleaf plant response rating” value (velvetleaf; [2]) was 5, the “Velvetleaf plant response rating” value (velvetleaf; [3]) was 5 and the “Plant response rating, Velvetleaf” value (velvetleaf; [5]) was 6. For the same compound, the “Velvetleaf plant response rating” value (velvetleaf; [6]) was 6, the “Sugarbeets plant response rating” value (sugar beet; [1]) was 0 and the “Sugarbeets plant response rating” value (sugar beet; [7]) was 0. For the same compound, the “Sugarbeets plant response rating (0 to 10 scale)” value (sugar beet; [8]) was 3, the “Sugarbeets plant response rating” value (sugar beet; [2]) was 4 and the “Sugarbeets plant response rating” value (sugar beet; [3]) was 6. For the same compound, the “Sugarbeets plant response rating” value (sugar beet; [4]) was 0, the “Plant response rating, Sugarbeets” value (sugar beet; [5]) was 4 and the “Sugarbeets plant response rating” value (sugar beet; [6]) was 5. The “Corn plant response rating” value (corn; [1]) was 0, the “Corn plant response rating” value (corn; [7]) was 0 and the “Corn plant response rating (0 to 10 scale)” value (corn; [8]) was 0. For the same compound, the “Corn plant response rating” value (corn; [2]) was 0, the “Corn plant response rating” value (corn; [3]) was 2 and the “Corn plant response rating” value (corn; [4]) was 0. The “Plant response rating, Corn” value (corn; [5]) was 0, the “Corn plant response rating” value (corn; [6]) was 0 and the “Bedstraw plant response rating” value (bedstraw; [1]) was 4. The “Bedstraw plant response rating” value (bedstraw; [7]) was 0, the “Bedstraw plant response rating (0 to 10 scale)” value (bedstraw; [8]) was 0 and the “Bedstraw plant response rating” value (bedstraw; [2]) was 4. The “Bedstraw plant response rating” value (bedstraw; [3]) was 4, the “Bedstraw plant response rating” value (bedstraw; [4]) was 0 and the “Plant response rating, Bedstraw” value (bedstraw; [5]) was 7. For the same compound, the “Bedstraw plant response rating” value (bedstraw; [6]) was 9.
